Assay results reported in ChEMBL document CHEMBL1201862, “PubChem BioAssay data set” (2004).
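Exposure lasted 48 hours, with cells grown in 96-well plates and compounds tested at five concentrations. GI50 is the concentration that inhibits growth by half.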 Active and inactive are the calls of the source. No stated cut-off is given here; in the data, active = GI50 up to about 1.1 µM and inactive = higher. Square brackets hold non-standard residues; d marks the D form. Peptide text beside a SMILES is read from it. * marks the point of attachment. AllylGly = C=CC[CH](N)C(=O)O; Boc = CC(C)(C)OC(=O)*; OtBu = CC(C)(C)O*

How the values were obtained:
Assay in all cases: inhibition of tumour cell growth, NCI panel, 48 h
[1] = tested on: A498
[2] = tested on: ACHN
[3] = tested on: CAKI-1
[4] = tested on: HCT-116
[5] = tested on: HT-29
[6] = tested on: K562
[7] = tested on: MCF7
[8] = tested on: MOLT-4
[9] = tested on: OVCAR-4
[10] = tested on: OVCAR-5
[11] = tested on: PC-3
[12] = tested on: SF-539
[13] = tested on: SK-MEL-28
[14] = tested on: SK-MEL-2
[15] = tested on: SK-MEL-5
[16] = tested on: SN12C
[17] = tested on: SNB-19
[18] = tested on: SW-620
[19] = tested on: TK-10
[20] = tested on: UO-31

Compound	GI50 [1]	GI50 [2]	GI50 [3]	GI50 [4]	GI50 [5]	GI50 [6]	GI50 [7]	GI50 [8]	GI50 [9]	GI50 [10]	GI50 [11]	GI50 [12]	GI50 [13]	GI50 [14]	GI50 [15]	GI50 [16]	GI50 [17]	GI50 [18]	GI50 [19]	GI50 [20]
Cc1nc2c(O)c3c(c(O)c2nc1C)C1C=CC3CC1	42.9 µM (inactive)	11.2 µM (inactive)	7.57 µM (inactive)	6.27 µM (inactive)	21.4 µM (inactive)	2.09 µM (inactive)	9.75 µM (inactive)	1.06 µM (active)	3.06 µM (inactive)	18.3 µM (inactive)	9.35 µM (inactive)	14.6 µM (inactive)	16.4 µM (inactive)	11.8 µM (inactive)	14 µM (inactive)	12.7 µM (inactive)	> 64.1 µM (inactive)	12.4 µM (inactive)	20.6 µM (inactive)	12 µM (inactive)
OCC1OC(n2cnc3c(SCc4ccccc4)ncnc32)C(O)C1O (stereo not given)	2.98 µM (inactive)	4.24 µM (inactive)	6.53 µM (inactive)	5.45 µM (inactive)	5.52 µM (inactive)	3.15 µM (inactive)	3.08 µM (inactive)	0.773 µM (active)	11.8 µM (inactive)	> 96.2 µM (inactive)	4.94 µM (inactive)	> 100 µM (inactive)	> 100 µM (inactive)	96.8 µM (inactive)	> 100 µM (inactive)	7.5 µM (inactive)	> 100 µM (inactive)	21.6 µM (inactive)	> 21.8 µM (inactive)	23 µM (inactive)
O=C1c2ccccc2C(=O)N1CCc1nc(-c2ccccc2)c[nH]1	> 100 µM (inactive)	> 100 µM (inactive)	> 100 µM (inactive)	> 100 µM (inactive)	> 100 µM (inactive)	> 100 µM (inactive)	> 100 µM (inactive)	> 100 µM (inactive)	> 100 µM (inactive)	> 100 µM (inactive)	> 100 µM (inactive)	> 100 µM (inactive)	> 100 µM (inactive)	> 100 µM (inactive)	> 100 µM (inactive)	> 100 µM (inactive)	> 100 µM (inactive)	> 100 µM (inactive)	> 100 µM (inactive)	> 100 µM (inactive)
CCOP1(=O)CC(C)=C(Cl)C(O)C1 (stereo not given)	> 100 µM (inactive)	> 100 µM (inactive)	> 100 µM (inactive)	> 100 µM (inactive)	> 100 µM (inactive)	> 100 µM (inactive)	> 100 µM (inactive)	> 100 µM (inactive)	> 100 µM (inactive)	> 100 µM (inactive)	> 100 µM (inactive)	> 100 µM (inactive)	> 100 µM (inactive)	> 100 µM (inactive)	> 100 µM (inactive)	> 100 µM (inactive)	> 100 µM (inactive)	> 100 µM (inactive)	> 100 µM (inactive)	> 100 µM (inactive)
O=C(c1ccc(Cl)c(Cl)c1)N(C(=O)N1CCN(c2ccccc2)CC1)S(=O)(=O)c1ccccc1	> 100 µM (inactive)	97.1 µM (inactive)	55.6 µM (inactive)	29.8 µM (inactive)	46.7 µM (inactive)	22.9 µM (inactive)	36.1 µM (inactive)	12.9 µM (inactive)	24.2 µM (inactive)	26.9 µM (inactive)	32 µM (inactive)	41.2 µM (inactive)	> 100 µM (inactive)	23.2 µM (inactive)	28.2 µM (inactive)	36.1 µM (inactive)	36.6 µM (inactive)	36.1 µM (inactive)	> 100 µM (inactive)	25.1 µM (inactive)
CCOC1=NC(C(F)(F)F)(C(F)(F)F)N=C(N2CCCCC2)O1	> 100 µM (inactive)	> 100 µM (inactive)	> 100 µM (inactive)	> 100 µM (inactive)	> 100 µM (inactive)	> 100 µM (inactive)	> 100 µM (inactive)	> 100 µM (inactive)	> 100 µM (inactive)	> 100 µM (inactive)	> 100 µM (inactive)	> 100 µM (inactive)	> 100 µM (inactive)	> 100 µM (inactive)	> 100 µM (inactive)	> 100 µM (inactive)	> 100 µM (inactive)	> 100 µM (inactive)	> 100 µM (inactive)	> 100 µM (inactive)
Cc1ccc(CC(=O)Nc2ccc(NC(=O)/C=C/NC(=O)/C=C/c3ccc(-c4ccccc4)cc3)cc2C(=O)c2ccccc2)cc1	2.31 µM (inactive)	3.08 µM (inactive)	3.29 µM (inactive)	1.12 µM (active)	5.06 µM (inactive)	11.1 µM (inactive)	1.72 µM (inactive)	4.17 µM (inactive)	1.48 µM (inactive)	2.09 µM (inactive)	1.47 µM (inactive)	1.67 µM (inactive)	3.03 µM (inactive)	1.89 µM (inactive)	2.09 µM (inactive)	1.92 µM (inactive)	3.05 µM (inactive)	1.57 µM (inactive)	2.78 µM (inactive)	3.67 µM (inactive)
C=CCC(NC(=O)C(CC(=O)OC(C)(C)C)NC(=O)OC(C)(C)C)C(=O)OC (stereo not given) (Boc-Asp(OtBu)-[AllylGly]-OMe; configuration not given here)	> 100 µM (inactive)	> 100 µM (inactive)	> 100 µM (inactive)	71.1 µM (inactive)	> 100 µM (inactive)	47.8 µM (inactive)	55.8 µM (inactive)	> 49.9 µM (inactive)	> 100 µM (inactive)	> 100 µM (inactive)	> 100 µM (inactive)	> 100 µM (inactive)	47.4 µM (inactive)	73.3 µM (inactive)	27.6 µM (inactive)	> 67 µM (inactive)	> 100 µM (inactive)	56.1 µM (inactive)	> 100 µM (inactive)	> 100 µM (inactive)
